One assay concerns the target GK from Escherichia coli (Escherichia coli, UniProt P0A6F3). The assay can be described thus: Comparative investigation of inhibitors, reaction rate ΔE/min (Table 2). The assay is classed as biochemical. Conditions: sample glycerol 6 mMole/liter, 1:100, 25° C., 546 nm. Here is the method:
(§1) Comparative investigation of various inhibitors according to the present invention with GK of varying origin: […]
(§2) tris/HCl 0.1 mole/litre, pH 7.6
(§3) glycerol phosphate oxidase
(§4) glycerol kinase 2.0 U/ml.
(§5) magnesium sulphate heptahydrate
(§6) 4-chlorophenol 3.5 mMole/litre
(§7) 4-aminoantipyrine 0.35 mMole/litre
(§8) Sample: aqueous glycerol solution 6 mMole/liter sample/reagent ratio 1:100 (20 μl./2 ml.)
(§9) measurement wavelength 546 nm. (ΔE/min. in each case read off from the linear region)

The target in assay [1] is T1, GK from Bacillus stearothermophilus (Geobacillus stearothermophilus, UniProt A0ACH1EBP7).
T1 construct: coupled glycerol phosphate oxidase/peroxidase test
T1 sequence (A0ACH1EBP7 1-496): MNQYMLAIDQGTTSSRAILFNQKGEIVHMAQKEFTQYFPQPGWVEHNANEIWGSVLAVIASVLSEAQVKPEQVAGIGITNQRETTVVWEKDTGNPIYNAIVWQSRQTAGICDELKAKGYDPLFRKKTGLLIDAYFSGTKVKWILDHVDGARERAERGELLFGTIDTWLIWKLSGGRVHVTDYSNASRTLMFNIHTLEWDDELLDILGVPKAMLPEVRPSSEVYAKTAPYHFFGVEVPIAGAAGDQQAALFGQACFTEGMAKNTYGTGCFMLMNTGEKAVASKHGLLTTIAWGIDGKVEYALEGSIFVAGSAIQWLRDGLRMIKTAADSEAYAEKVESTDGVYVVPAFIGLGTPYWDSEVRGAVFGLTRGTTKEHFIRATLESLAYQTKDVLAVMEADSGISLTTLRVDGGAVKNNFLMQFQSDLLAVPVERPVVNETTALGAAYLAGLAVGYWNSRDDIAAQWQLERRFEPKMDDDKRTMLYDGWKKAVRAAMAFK
The assay can be described thus: Comparative investigation of inhibitors, reaction rate ΔE/min (Table 1). The assay is classed as biochemical. Conditions: sample glycerol 6 mMole/liter, 1:100, 25° C., 546 nm. On the procedure: as §1, §2, §3, §4, §5, §6, §7, §8, §9

The structures appear in SMILES notation.

GK from Escherichia coli, sequence (P0A6F3 whole entry): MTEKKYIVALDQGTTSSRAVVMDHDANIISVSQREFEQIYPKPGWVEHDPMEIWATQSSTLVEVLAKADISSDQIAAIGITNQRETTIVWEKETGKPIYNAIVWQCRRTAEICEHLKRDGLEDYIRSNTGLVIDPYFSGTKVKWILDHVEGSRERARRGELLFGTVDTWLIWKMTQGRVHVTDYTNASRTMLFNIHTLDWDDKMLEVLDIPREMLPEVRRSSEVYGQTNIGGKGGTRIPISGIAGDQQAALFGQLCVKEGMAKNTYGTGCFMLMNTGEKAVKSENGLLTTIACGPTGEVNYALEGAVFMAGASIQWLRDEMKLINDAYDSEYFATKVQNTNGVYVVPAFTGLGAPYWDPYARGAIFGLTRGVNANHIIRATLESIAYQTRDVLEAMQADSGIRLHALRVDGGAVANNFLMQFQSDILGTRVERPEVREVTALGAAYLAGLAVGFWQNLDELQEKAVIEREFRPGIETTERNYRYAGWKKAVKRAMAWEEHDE

In the case of `O=C[C@@H](O)[C@H](O)[C@H](O)CO` [D-arabinose], the ΔE/min at GK from Escherichia coli (inhibitor 20 mMol/l) stood at 0.363 min⁻¹; at GK from Escherichia coli (inhibitor 50 mMol/l), 0.302 min⁻¹; on GK from Escherichia coli (inhibitor 100 mMol/l) it was 0.231 min⁻¹; on GK from Escherichia coli (inhibitor 150 mMol/l), 0.167 min⁻¹; in assay [1] (inhibitor 10 mMol/l) it was 0.426 min⁻¹; in assay [1] (inhibitor 20 mMol/l), 0.349 min⁻¹. Besides, the ΔE/min turned out to be 0.249 min⁻¹ in assay [1] (inhibitor 50 mMol/l) and 0.121 min⁻¹ in assay [1] (inhibitor 100 mMol/l).

As to `C[C@H](O)[C@@H](O)[C@@H](O)[C@H](O)C=O` [L-fucose], the ΔE/min on GK from Escherichia coli (inhibitor 20 mMol/l) was found to be 0.352 min⁻¹; at GK from Escherichia coli (inhibitor 50 mMol/l) it was 0.286 min⁻¹; at GK from Escherichia coli (inhibitor 100 mMol/l) it was 0.209 min⁻¹; at GK from Escherichia coli (inhibitor 150 mMol/l) it was 0.142 min⁻¹; in assay [1] (inhibitor 10 mMol/l), 0.230 min⁻¹; in assay [1] (inhibitor 20 mMol/l) it was 0.153 min⁻¹. In addition, the ΔE/min in assay [1] (inhibitor 50 mMol/l) came out at 0.077 min⁻¹; in assay [1] (inhibitor 100 mMol/l), 0.039 min⁻¹.

On to `O=C[C@@H](O)[C@H](O)[C@@H](O)CO` [L-xylose], for which the ΔE/min turned out to be 0.228 min⁻¹ at GK from Escherichia coli (inhibitor 5 mMol/l); 0.169 min⁻¹ at GK from Escherichia coli (inhibitor 10 mMol/l); 0.118 min⁻¹ on GK from Escherichia coli (inhibitor 20 mMol/l); 0.072 min⁻¹ at GK from Escherichia coli (inhibitor 50 mMol/l); 0.320 min⁻¹ in assay [1] (inhibitor 2 mMol/l); 0.188 min⁻¹ in assay [1] (inhibitor 5 mMol/l). The ΔE/min in assay [1] (inhibitor 10 mMol/l) was 0.105 min⁻¹; in assay [1] (inhibitor 20 mMol/l), 0.062 min⁻¹.

These data come from patent publication US4705749A, “Process and reagent for the determination of glycerol with the use of glycerol kinase” (Boehringer Mannheim GmbH, priority 1983, dated 1987).
